Values of other authors, collected in patent US7414057B2, “Piperazine urea derivatives as melanocortin-4 receptor agonists” (Merck & Co., Inc., priority 2002, dated 2008).

Conditions: injected intramuscularly or subcutaneously to males with psychogenic erectile dysfunction

In the case of “Ac-Nle-c[Asp-His-DPhe-Arg-Trp-Lys]-NH2 [melanotan-II]”, the response rate is listed as 75%.
